Results published in PubChem BioAssay AID248 (DTP/NCI, 2004).
“And” between values parts separate entries of the source, which are not always exact repeats. Equal values may be shown once. Inconclusive results and toxic doses are left out. Cut-off read from the data, not from the text of the source: active = T/C of 150% or more; inactive = T/C below 125%.

System: L1210 leukemia ip in BDF1 mice, survival T/C
Experiment: NCI In Vivo Anticancer Drug Screen. Data for tumor model L1210 Leukemia (intraperitoneal) in B6D2F1 (BDF1) mice
Conditions: endpoint: mean survival time, higher = longer survival
Method in brief: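 Value reflects the ratio of survival in compound-treated mice to survival in vehicle-treated controls, with both groups carrying the same transplanted tumor.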

[1] = dose: 25.0 mg/kg/injection, schedule: Q01DX009 (ip), vehicle: saline
[2] = dose: 50.0 mg/kg/injection, schedule: Q01DX009 (ip), vehicle: Klucel (hydroxypropylcellulose) (HPC)
[3] = dose: 50.0 mg/kg/injection, schedule: Q01DX009 (ip), vehicle: saline
[4] = dose: 100.0 mg/kg/injection, schedule: Q01DX001 (ip), vehicle: saline
[5] = dose: 100.0 mg/kg/injection, schedule: Q01DX009 (ip), vehicle: saline
[6] = dose: 100.0 mg/kg/injection, schedule: Q04DX003 (ip), vehicle: saline
[7] = dose: 100.0 mg/kg/injection, schedule: Q01DX009 (ip), vehicle: Klucel (hydroxypropylcellulose) (HPC)
[8] = dose: 200.0 mg/kg/injection, schedule: Q01DX009 (ip), vehicle: Klucel (hydroxypropylcellulose) (HPC)
[9] = dose: 400.0 mg/kg/injection, schedule: Q01DX009 (ip), vehicle: Klucel (hydroxypropylcellulose) (HPC)
[10] = dose: 100.0 mg/kg/injection, schedule: Q04DX003 (ip), vehicle: saline with Tween-80
[11] = dose: 200.0 mg/kg/injection, schedule: Q04DX003 (ip), vehicle: saline with Tween-80
[12] = dose: 50.0 mg/kg/injection, schedule: Q01DX001 (ip), vehicle: carboxymethylcellulose (CMC)
[13] = dose: 100.0 mg/kg/injection, schedule: Q01DX001 (ip), vehicle: carboxymethylcellulose (CMC)
[14] = dose: 200.0 mg/kg/injection, schedule: Q01DX001 (ip), vehicle: carboxymethylcellulose (CMC)

Measured: T/C

C[S+](C)C
inactive: dose: 12.0 mg/kg/injection, schedule: Q01DX009 (ip), vehicle: saline 104 % of control | [1] 93 % of control and 100 % of control | dose: 25.0 mg/kg/injection, schedule: Q04DX003 (ip), vehicle: saline 93 % of control | [2] 91 % of control | [3] 100 % of control and 98 % of control | dose: 50.0 mg/kg/injection, schedule: Q04DX003 (ip), vehicle: saline 98 % of control | [4] 96 % of control | [5] 90 % of control | [6] 97 % of control and 88 % of control

O=C(N/N=C/c1ccc(Cl)cc1)C(O)c1ccccc1 (stereo not drawn)
inactive: [7] 87 % of control | [8] 87 % of control | [9] 89 % of control

N#CSCc1ccccc1Cl
inactive: dose: 6.25 mg/kg/injection, schedule: Q04DX003 (ip), vehicle: Klucel (hydroxypropylcellulose) (HPC) 104 % of control | dose: 12.5 mg/kg/injection, schedule: Q04DX003 (ip), vehicle: Klucel (hydroxypropylcellulose) (HPC) 104 % of control | dose: 25.0 mg/kg/injection, schedule: Q04DX003 (ip), vehicle: Klucel (hydroxypropylcellulose) (HPC) 93 % of control | dose: 50.0 mg/kg/injection, schedule: Q04DX003 (ip), vehicle: Klucel (hydroxypropylcellulose) (HPC) 96 % of control

Cc1cc2c3ccccc3ccc2[n+]2ccccc12
inactive: dose: 4.5 mg/kg/injection, schedule: Q01DX009 (ip), vehicle: acetone 115 % of control | dose: 4.5 mg/kg/injection, schedule: Q01DX009 (ip), vehicle: saline 100 % of control | dose: 9.0 mg/kg/injection, schedule: Q01DX009 (ip), vehicle: acetone 120 % of control | dose: 9.0 mg/kg/injection, schedule: Q01DX009 (ip), vehicle: saline 110 % of control | dose: 18.0 mg/kg/injection, schedule: Q01DX009 (ip), vehicle: acetone 115 % of control | dose: 18.0 mg/kg/injection, schedule: Q01DX009 (ip), vehicle: saline 120 % of control | [4] 107 % of control

CC(C)(C)CC(C)(C)c1ccc(OCCOc2ccc([N+](=O)[O-])cc2N)cc1
inactive: [7] 97 % of control | dose: 100.0 mg/kg/injection, schedule: Q04DX003 (ip), vehicle: Klucel (hydroxypropylcellulose) (HPC) 98 % of control | [8] 97 % of control | dose: 200.0 mg/kg/injection, schedule: Q04DX003 (ip), vehicle: Klucel (hydroxypropylcellulose) (HPC) 93 % of control | [9] 101 % of control | dose: 400.0 mg/kg/injection, schedule: Q04DX003 (ip), vehicle: Klucel (hydroxypropylcellulose) (HPC) 86 % of control

Nc1cc[n+](-c2ccc([N+](=O)[O-])cc2[N+](=O)[O-])cc1
inactive: dose: 12.5 mg/kg/injection, schedule: Q01DX009 (ip), vehicle: Klucel (hydroxypropylcellulose) (HPC) 98 % of control | dose: 25.0 mg/kg/injection, schedule: Q01DX009 (ip), vehicle: Klucel (hydroxypropylcellulose) (HPC) 100 % of control

CC1OC1C1OC1C (stereo not drawn)
inactive: dose: 100.0 mg/kg/injection, schedule: Q04DX002 (ip), vehicle: saline 109 % of control | [6] 104 % of control and 101 % of control and 97 % of control | dose: 200.0 mg/kg/injection, schedule: Q04DX002 (ip), vehicle: saline 109 % of control | dose: 200.0 mg/kg/injection, schedule: Q04DX003 (ip), vehicle: saline 108 % of control and 111 % of control and 95 % of control | dose: 400.0 mg/kg/injection, schedule: Q04DX002 (ip), vehicle: saline 109 % of control | dose: 400.0 mg/kg/injection, schedule: Q04DX003 (ip), vehicle: saline 111 % of control and 97 % of control and 98 % of control

CN(C)c1ccc(/C=C/C=C2\c3ccccc3-c3ccc([N+](=O)[O-])cc32)cc1
inactive: [10] 93 % of control | [11] 102 % of control | dose: 400.0 mg/kg/injection, schedule: Q04DX003 (ip), vehicle: saline with Tween-80 94 % of control

CC[N+](C)(CC)CCC[N+]1(C)CC2CC=CCC2C1 (stereo not drawn)
inactive: dose: 55.0 mg/kg/injection, schedule: Q01DX Z (ip), vehicle: saline 103 % of control | dose: 83.0 mg/kg/injection, schedule: Q01DX Z (ip), vehicle: saline 97 % of control | dose: 125.0 mg/kg/injection, schedule: Q01DX Z (ip), vehicle: saline 96 % of control

Cc1c(-c2ccccc2)nn(O)c1-c1ccccc1
inactive: [2] 102 % of control | [7] 102 % of control | [8] 94 % of control

Cc1cc(=O)n(-c2ccccc2)c2ccccc12
inactive: [4] 103 % of control | dose: 200.0 mg/kg/injection, schedule: Q01DX001 (ip), vehicle: saline 97 % of control | dose: 400.0 mg/kg/injection, schedule: Q01DX001 (ip), vehicle: saline 100 % of control

CCCCCCCCCCCCCCCCCCNC(=O)NCc1ccncc1
inactive: dose: 100.0 mg/kg/injection, schedule: Q04DX002 (ip), vehicle: Klucel (hydroxypropylcellulose) (HPC) 94 % of control | dose: 200.0 mg/kg/injection, schedule: Q04DX002 (ip), vehicle: Klucel (hydroxypropylcellulose) (HPC) 123 % of control | dose: 400.0 mg/kg/injection, schedule: Q04DX002 (ip), vehicle: Klucel (hydroxypropylcellulose) (HPC) 87 % of control

CC1CC[N-]CC1.CC1CC[N-]CC1.[Br][Pt+2]([Br])([Br])[Br]
inactive: dose: 6.25 mg/kg/injection, schedule: Q01DX009 (ip), vehicle: saline with Tween-80 108 % of control | dose: 12.5 mg/kg/injection, schedule: Q01DX009 (ip), vehicle: saline with Tween-80 113 % of control | dose: 12.5 mg/kg/injection, schedule: Q04DX003 (ip), vehicle: saline with Tween-80 104 % of control | dose: 25.0 mg/kg/injection, schedule: Q04DX003 (ip), vehicle: saline with Tween-80 105 % of control

CCOC(=O)c1ccc(OC(=O)Nc2ccc(F)cc2)cc1
inactive: [12] 106 % of control | dose: 50.0 mg/kg/injection, schedule: Q01DX009 (ip), vehicle: carboxymethylcellulose (CMC) 96 % of control and 105 % of control | dose: 50.0 mg/kg/injection, schedule: Q04DX002 (ip), vehicle: carboxymethylcellulose (CMC) 95 % of control and 103 % of control | [13] 104 % of control | dose: 100.0 mg/kg/injection, schedule: Q01DX009 (ip), vehicle: carboxymethylcellulose (CMC) 95 % of control and 99 % of control | dose: 100.0 mg/kg/injection, schedule: Q04DX002 (ip), vehicle: carboxymethylcellulose (CMC) 95 % of control and 107 % of control | [14] 101 % of control | dose: 200.0 mg/kg/injection, schedule: Q01DX009 (ip), vehicle: carboxymethylcellulose (CMC) 94 % of control | dose: 200.0 mg/kg/injection, schedule: Q04DX002 (ip), vehicle: carboxymethylcellulose (CMC) 103 % of control and 88 % of control

S=c1nc[nH]c2c1ncn2CCc1ccccc1
inactive: [12] 115 % of control | [13] 101 % of control | [14] 112 % of control | dose: 400.0 mg/kg/injection, schedule: Q01DX001 (ip), vehicle: carboxymethylcellulose (CMC) 95 % of control

CSc1nc(Cl)c(-c2ccccc2)c(N2CC2)n1
inactive: dose: 25.0 mg/kg/injection, schedule: Q01DX Z (ip), vehicle: methylcellulose (MC) 98 % of control | dose: 50.0 mg/kg/injection, schedule: Q01DX Z (ip), vehicle: methylcellulose (MC) 90 % of control

O=C(/C=C/c1ccc2c(c1)OCO2)/C=C/c1ccc2c(c1)OCO2
inactive: [1] 89 % of control | [3] 88 % of control | [5] 91 % of control | dose: 200.0 mg/kg/injection, schedule: Q01DX009 (ip), vehicle: saline 88 % of control

Cc1cc(NC(=O)c2ccc(C(=O)Nc3cc(C)nc4ccccc34)cc2)c2ccccc2n1
inactive: dose: 100.0 mg/kg/injection, schedule: Q01DX001 (ip), vehicle: other 102 % of control

N/N=C1/CCN2CCCc3cccc1c32
inactive: [10] 101 % of control | [11] 96 % of control
